Where a name gives a salt, the structure may show the parent alone.
How the values were obtained:
Brd4 bromodomain 1 = target: T1, Brd4 bromodomain 1 (Homo sapiens, UniProt O60885); assay: Inhibition of tetra-acetylated histone H4 binding to BET bromodomains (TR-FRET); set-up: key: Active: Compounds with an IC50 value less than 30 μM were deemed to be active.; Not Active: Compounds with an IC50 value less than 30 μM were deemed to be active; conditions: first bromodomain of Brd4, tetra-acetylated histone H4 peptide
T1 construct: made in house; host or cells: E. coli BL21(DE3)
Procedure: Proteins were cloned and overexpressed with a N-terminal 6×His tag, then purified by nickel affinity followed by size exclusion chromatography. Briefly, E. coli BL21(DE3) cells were transformed with a recombinant expression vector encoding N-terminally Nickel affinity tagged bromodomains from Brd2, Brd3, Brd4. Cell cultures were incubated at 37° C. with shaking to the appropriate density and induced overnight with IPTG. The supernatant of lysed cells was loaded onto Ni-IDA column for purification. Eluted protein was pooled, concentrated and further purified by size exclusion chromatography. Fractions representing monomeric protein were pooled, concentrated, aliquoted, and frozen at −80° C. for use in subsequent experiments.
Binding of tetra-acetylated histone H4 and BET bromodomains was confirmed by a Time Resolved Fluorescence Resonance Energy Transfer (TR-FRET) method. N-terminally His-tagged bromodomains (200 nM) and biotinylated tetra-acetylated histone H4 peptide (25-50 nM, Millipore) were incubated in the presence of Europium Cryptate-labeled streptavidin (Cisbio Cat. #610SAKLB) and XL665-labeled monoclonal anti-His antibody (Cisbio Cat. #61HISXLB) in a white 96 well microtiter plate (Greiner). For inhibition assays, serially diluted test compound was added to these reactions in a 0.2% final concentration of DMSO. Final buffer concentrations were 30 mM HEPES pH 7.4, 30 mM NaCl, 0.3 mM CHAPS, 20 mM phosphate pH 7.0, 320 mM KF, 0.08% BSA). After 2 hours incubation at room temperature, the fluorescence by FRET was measured at 665 and 620 nm by a SynergyH4 plate reader (Biotek). Illustrative results with the first bromodomain of Brd4 are shown below (Table 1). The binding inhibitory activity was shown by a decrease in 665 nm fluorescence relative to 620 nm. IC50 values were determined from a dose response curve.

hIL-6 mRNA = assay: Inhibition of hIL-6 mRNA transcription in LPS-stimulated U937 macrophages; assay type: cell-based, human; set-up: key: Active: Compounds with an IC50 value less than 30 μM are deemed to be active; conditions: U937 differentiated into macrophages, 1 h pretreatment, lipopolysaccharide 3 h
Procedure: In this example, hIL-6 mRNA in tissue culture cells was quantitated to measure the transcriptional inhibition of hIL-6 when treated with a compound of the present disclosure.
A human leukemic monocyte lymphoma cell line (U937) was plated (3.2×10^4 cells per well) in a 96-well plate in 100 μL RPMI-1640 containing 10% FBS and penicillin/streptomycin, and differentiated into macrophages for 3 days in 60 ng/mL PMA ([…]) at 37° C. in 5% CO2 prior to the addition of the compound of interest. The cells were pretreated for 1 h with the test compound prior to stimulation with […] lipopolysaccharide from Escherichia coli. The cells were incubated at 37° C. for 3 h before the cells were harvested. At time of harvest, the spent media was removed from the cells and the cells were rinsed in 200 μL PBS. Cell lysis solution (70 μL) was added the cells in each well and incubated for 5-10 min at room temperature, to allow for complete cell lysis and detachment. mRNA was then prepared using the “mRNA Catcher PLUS plate” (Invitrogen), according to the protocol supplied. After the last wash, as much wash buffer as possible was aspirated without allowing the wells to dry. Elution buffer (E3, 70 μL) was then added to each well. mRNA was then eluted by incubating the mRNA Catcher PLUS plate with Elution Buffer for 5 min at 68° C. and then immediately placing the plate on ice.
The eluted mRNA isolated was then used in a one-step quantitative real-time PCR reaction, using components of the Ultra Sense Kit together with Applied Biosystems primer-probe mixes. Real-time PCR data was analyzed, normalizing the Ct values for hIL-6 to an internal control, prior to determining the fold induction of each unknown sample, relative to the control.

c-myc = assay: Inhibition of c-myc expression in cancer cell lines (mRNA, real-time PCR); assay type: cell-based; set-up: key: Active: Compounds with an IC50 value less than 30 μM were deemed to be active; conditions: Human AML MV4-11 cells, 3 hours
Procedure: MV4-11 cells (2.5×10^4 cells) were plated in 96 well U-bottom plates with test compound or DMSO (0.1%), and incubated for 3 hours at 37° C. Cells were then harvested by centrifugation, lysed, and mRNA was isolated using the mRNA catcher plus kit (Invitrogen). Reverse transcription of the mRNA and duplex amplification of the c-myc and cyclophilin cDNAs was performed using the RNA Ultrasense kit (Invitrogen) and a ViiA7 real-time PCR machine (Applied Biosystems). IC50 values were determined from a dose response curve.

Human AML MV-4-11 cells = assay: Inhibition of cell proliferation in cancer cell lines (CellTiter Aqueous One); assay type: cell-based; set-up: key: Active: Compounds with an IC50 value less than 30 μM were deemed to be active.; Not Active: Compounds with an IC50 value less than 30 μM were deemed to be active; conditions: 72 hours
Procedure: MV4-11 cells: 96-well plates were seeded with 5×10^4 cells per well of exponentially growing human AML MV-4-11 (CRL-9591) cells and immediately treated with two-fold dilutions of test compounds, ranging from 30 μM to 0.2 μM. Triplicate wells were used for each concentration, as well as a media only and three DMSO control wells. The cells and compounds were incubated at 37° C., 5% CO2 for 72 hours before adding 20 μL of the CellTiter Aqueous One Solution (Promega) to each well and incubating at 37° C., 5% CO2 for an additional 3-4 hours. The absorbance was taken at 490 nm in a spectrophotometer and the percentage of proliferation relative to DMSO-treated cells was calculated after correction from the blank well. IC50 were calculated using the GraphPad Prism software.

Compound | melting point [°C] | FRET activity (IC50 < 30 μM) (Brd4 bromodomain 1) | IL-6 activity (IC50 < 30 μM) (hIL-6 mRNA) | c-myc activity (IC50 < 30 μM) (c-myc) | cell proliferation activity (IC50 < 30 μM) (Human AML MV-4-11 cells)
COc1cc(OC)c2c(=O)[nH]c(-c3ccc(OCCO)c(-c4ccc(S(C)(=O)=O)cc4)n3)nc2c1 (as salt: methanesulfonate) [Example 25, 2-(5-(2-Hydroxyethoxy)-6-(4-(methylsulfonyl)phenyl)pyridin-2-yl)-5,7-dimethoxyquinazolin-4(3H)-one methanesulfonate] | 134 to 136 | – | – | – | –
COc1cc(OC)c2c(=O)[nH]c(-c3ccc(OCCO)c(-c4cccc(S(C)(=O)=O)c4)n3)nc2c1 (as salt: methanesulfonate) [Example 36, 2-(5-(2-Hydroxyethoxy)-6-(3-(methylsulfonyl)phenyl)pyridin-2-yl)-5,7-dimethoxyquinazolin-4(3H)-one methanesulfonate] | 218 to 220 | – | – | – | –
COc1cc(OC)c2c(=O)[nH]c(-c3ccc(OCCO)c(-c4ccccc4)n3)nc2c1 [Example 21, 2-(5-(2-Hydroxyethoxy)-6-phenylpyridin-2-yl)-5,7-dimethoxyquinazolin-4(3H)-one] | 240 to 242 | Active | Active | – | –
COc1cc(OC)c2c(=O)[nH]c(-c3ccc(OCCNC(C)C)c(-c4ccccc4)n3)nc2c1 [Example 22, 2-(5-(2-(Isopropylamino)ethoxy)-6-phenylpyridin-2-yl)-5,7-dimethoxyquinazolin-4(3H)-one] | 179 to 180 | Active | Active | Active | Active
COc1cc(OC)c2c(=O)[nH]c(-c3ccc(OCCO)c(-c4ccccc4S(C)(=O)=O)n3)nc2c1 [Example 30, 2-(5-(2-Hydroxyethoxy)-6-(2-(methylsulfonyl)phenyl)pyridin-2-yl)-5,7-dimethoxyquinazolin-4(3H)-one] | 92 to 93 | Active | – | – | –
COc1cc(OC)c2c(=O)[nH]c(-c3ccc(OCCN4CCOCC4)c(-c4ccc(S(C)(=O)=O)cc4)n3)nc2c1.Cl [Example 31, 5,7-Dimethoxy-2-(6-(4-(methylsulfonyl)phenyl)-5-(2-morpholinoethoxy)pyridin-2-yl)quinazolin-4(3H)-one hydrochloride] | 226 to 228 | Active | Active | Active | Not Active
COc1cc(OC)c2c(=O)[nH]c(-c3ccc(OCCNC(C)C)c(-c4ccccc4S(C)(=O)=O)n3)nc2c1 [Example 32, 2-(5-(2-(Isopropylamino)ethoxy)-6-(2-(methylsulfonyl)phenyl)pyridin-2-yl)-5,7-dimethoxyquinazolin-4(3H)-one] | 178 to 180 | Active | Not Active | – | –
COc1cc(OC)c2c(=O)[nH]c(-c3ccc(OCCNC(C)C)c(-c4cccc(S(C)(=O)=O)c4)n3)nc2c1 [Example 33, 2-(5-(2-(Isopropylamino)ethoxy)-6-(3-(methylsulfonyl)phenyl)pyridin-2-yl)-5,7-dimethoxyquinazolin-4(3H)-one] | 222 to 223 | Active | Not Active | – | –
CCS(=O)(=O)c1ccc(-c2nc(-c3nc4cc(OC)cc(OC)c4c(=O)[nH]3)ccc2OCCO)cc1 [Example 34, 2-(6-(4-(Ethylsulfonyl)phenyl)-5-(2-hydroxyethoxy)pyridin-2-yl)-5,7-dimethoxyquinazolin-4(3H)-one] | 282 to 284 | Active | Active | Active | Active
CCS(=O)(=O)c1ccc(-c2nc(-c3nc4cc(OC)cc(OC)c4c(=O)[nH]3)ccc2OCCNC(C)C)cc1 [Example 35, 2-(6-(4-(Ethylsulfonyl)phenyl)-5-(2-(isopropylamino)ethoxy)pyridin-2-yl)-5,7-dimethoxyquinazolin-4(3H)-one] | 195 to 197 | Active | Not Active | Active | Active
COc1cc(OC)c2c(=O)[nH]c(-c3cccc(-c4ccc([S+](C)[O-])cc4)c3)nc2c1 (stereo not drawn) [Example 47, 5,7-Dimethoxy-2-(4′-(methylsulfinyl)-[1,1′-biphenyl]-3-yl)quinazolin-4(3H)-one] | > 300 | Not Active | Not Active | – | –
COc1cc(OC)c2c(=O)[nH]c(-c3cc(-c4ccc([S+](C)[O-])cc4)cs3)nc2c1 (stereo not drawn) [Example 48, 5,7-Dimethoxy-2-(4-(4-(methylsulfinyl)phenyl)thiophen-2-yl)quinazolin-4(3H)-one] | > 300 | Not Active | Active | Not Active | Not Active
C[S+]([O-])c1ccc(-c2nc(-c3nc4ccccc4c(=O)[nH]3)ccc2OCCO)cc1 (stereo not drawn) [Example 61, 2-(5-(2-Hydroxyethoxy)-6-(4-(methylsulfinyl)phenyl)pyridin-2-yl)quinazolin-4(3H)-one] | 261 to 262 | Active | – | – | –
COc1cccc2nc(-c3ccc(OCCO)c(-c4ccc(S(C)(=O)=O)cc4)n3)[nH]c(=O)c12 [Example 62, 2-(5-(2-Hydroxyethoxy)-6-(4-(methylsulfonyl)phenyl)pyridin-2-yl)-5-methoxyquinazolin-4(3H)-one] | > 300 | Active | Active | – | –
CC(C)NCCOc1ccc(-c2nc3ccccc3c(=O)[nH]2)nc1-c1ccc(S(C)(=O)=O)cc1 [Example 68, 2-(5-(2-(Isopropylamino)ethoxy)-6-(4-(methylsulfonyl)phenyl)pyridin-2-yl)quinazolin-4(3H)-one] | 188 to 189 | Active | – | – | –

Reference: patent US9765039B2, “Biaryl derivatives as bromodomain inhibitors” (Zenith Epigenetics Ltd., priority 2012, dated 2017)
